# Assay results from patent US20230310473A1, “METHOD FOR TREATING OBESITY AND/OR HYPERTENSION” (THE ROYAL INSTITUTION FOR THE ADVANCEMENT OF …, priority 2022, published 2023).
# Legend:
# [1] = Liver function (ALT, ALP) in HFD obese mice; type: in vivo; settings: mice with obesity; levan 250 mg/Kg gavage 4 weeks
# [2] = test system: mesenteric resistance arteries (MRA); experiment: Vascular reactivity (wire myograph) of mesenteric resistance arteries from HFD obese mice; type: in vivo
# Description: FIG. 4B is a graph of the mesenteric relaxation percentage in function of the logarithm of the concentration of acetylcholine (endothelium dependent relaxation to Ach) for control mice (1), EXP mice (2) and HFD mice (3).
# FIG. 4C is a graph of the mesenteric relaxation percentage in function of the logarithm of the concentration of sodium nitroprusside (SNP) (endothelium independent relaxation to SNP) for control mice (1), EXP mice (2) and HFD mice (3).
# (§1) Eight-week-old C57/b6 male mice (stock number 000664, Jackson Labs) were fed with a high fat diet (HFD) for 12 weeks in the presence and absence of levan having β-[2,6]-glycosidic linkages. More specifically, the mice were fed either standard diet (SD; 5.8% fat, 44.3% carbohydrate, 19.1% protein) or high fat (HFD; 60% fat, 20% carbohydrate, 20% protein) diet for 12 weeks. Levan having β-[2,6]-glycosidic linkages was administered by gavage (250 mg/Kg) for the last 4 weeks of HFD feeding for a subgroup of mice, the experimental group. Bodyweight, blood glucose, body composition, and lipid profile were determined. Vascular function and endothelial function markers were studied in aorta and mesenteric resistance arteries (MRA). Furthermore, body weight was measured weekly, lean and fat mass were measured by EchoMRl, blood glucose and lipid plasma levels were measured, and the thoracic aorta and mesenteric resistance arteries (MRA) were harvested and used for western blot, quantitative real time (qRT-) PCR and vascular reactivity using the wire myograph.
# [3] = High fat diet (HFD) obesity mouse model: body weight, body composition, blood glucose, lipid profile; type: in vivo, mice; settings: for body weight: HFD-fed C57/b6 male mice, levan 250 mg/Kg by gavage, last 4 weeks of 12 weeks HFD
# Description: as §1
# Results, reported as means ± standard error (SE), were analyzed using GraphPad Prism 9 (GraphPad Software, San Diego, CA). T-tests and one-way ANOVA were used to compare certain paired parameters. Unless specified otherwise, the values for p are *p<0.05; **p<0.01; ***p<0.001; and ****p<0.0001.
# [4] = test system: inflammation, oxidative stress and ER stress markers in proximal colon; experiment: mRNA markers in proximal colon of HFD obese mice; type: in vivo
# Description: FIG. 5L is a heat map showing all the markers in proximal colon from control mice and mice fed with HFD in the presence and absence of low levan β-[2,6]-glycosidic linkages treatment.
# as §1
# [5] = test system: inflammation, oxidative stress and ER stress markers in proximal colon; experiment: mRNA markers in proximal colon of angiotensin II hypertensive mice; type: in vivo
# Description: FIG. 9K is a heat map showing the markers in proximal colon from normotensive mice and hypertensive mice treated with and without low levan β-[2,6]-glycosidic linkages treatment.
# [6] = Liver function (ALT, ALP) in angiotensin II hypertensive mice; type: in vivo
# Description: FIG. 11A is a graph showing the level of Alanine Aminotransferase/SGPT (ALT) in control mice administered vehicle, EXP mice administered angiotensin II and levan, and mice administered angiotensin II without levan.
# FIG. 11B is a graph showing the level of alkaline phosphatase (ALP) in control mice administered vehicle, EXP mice administered angiotensin II and levan, and mice administered angiotensin II without levan.
# [7] = test system: inflammation, oxidative stress and endoplasmic reticulum stress markers in mesenteric arteries; experiment: Western blot markers in mesenteric arteries of HFD obese mice; type: in vivo
# Description: FIG. 4D is a western blot of P-eNOS, T-eNOS, BIP, CHOP, TNFα, P65 and GAPDH, in mesenteric arteries for the control mice, the HFD mice and the EXP mice.
# as §1
# [8] = test system: inflammation, oxidative stress and endoplasmic reticulum stress markers in thoracic aorta; experiment: Western blot and qRT-PCR markers in thoracic aorta of HFD obese mice; type: in vivo
# Description: FIG. 3D is a western blot of phospho-endothelial nitric oxide synthase (P-eNOS), […] endothelial nitric oxide synthase (T-eNOS), binding protein (BIP), C/EBP homologous protein (CHOP), tumor necrosis factor alpha (TNFα), P65 and glyceraldehyde-3-phosphate dehydrogenase (GAPDH), for the control mice, the HFD mice and the EXP mice.
# FIG. 3W is a heat map showing all the markers in thoracic aorta from control mice and mice fed with HFD in the presence and absence of low levan β-[2,6]-glycosidic linkages treatment.
# as §1
# [9] = test system: inflammation, oxidative stress and ER stress markers in distal colon; experiment: mRNA markers in distal colon of HFD obese mice; type: in vivo
# Description: FIG. 6L is a heat map showing all the markers in distal colon from control mice and mice fed with HFD in the presence and absence of low levan β-[2,6]-glycosidic linkages treatment.
# as §1
# [10] = Systolic blood pressure in angiotensin II hypertensive mice; type: in vivo; settings: mice with hypertension (angiotensin II); vs angiotensin II without levan
# Description: FIG. 8A is a graph showing the systolic blood pressure (BP) in function of time for control mice administered vehicle (1), EXP mice administered angiotensin II and levan (2) and mice administered angiotensin II without levan (3).
# aorta = experiment: Vascular contraction and relaxation of aorta from angiotensin II hypertensive mice; type: in vivo
# Description: FIG. 8C is a graph showing the aorta contraction percentage in response to the log of phenylephrine (PE) concentration for control mice administered vehicle (1), EXP mice administered angiotensin II and levan (2) and mice administered angiotensin II without levan (3).
# FIG. 8D is a graph showing the aorta contraction percentage in response to the log of thromboxane A analog (TXA) concentration for control mice administered vehicle (1), EXP mice administered angiotensin II and levan (2) and mice administered angiotensin II without levan (3).
# FIG. 8E is a graph showing the aorta contraction percentage in response to the log of angiotensin II (Ang II) concentration for control mice administered vehicle (1), EXP mice administered angiotensin II and levan (2) and mice administered angiotensin II without levan (3).
# FIG. 8F is a graph showing the aorta relaxation percentage in function of the logarithm of the concentration of acetylcholine (endothelium dependent relaxation to Ach) for control mice administered vehicle (1), EXP mice administered angiotensin II and levan (2) and mice administered angiotensin II without levan (3).
# FIG. 8G is a graph of the aorta relaxation percentage in function of the logarithm of the concentration of sodium nitroprusside (SNP) (endothelium independent relaxation to SNP) for control mice administered vehicle (1), EXP mice administered angiotensin II and levan (2) and mice administered angiotensin II without levan (3).
# [11] = test system: inflammation, oxidative stress and ER stress markers in distal colon; experiment: mRNA markers in distal colon of angiotensin II hypertensive mice; type: in vivo
# Description: FIG. 10K is a heat map showing the markers in distal colon from normotensive mice and hypertensive mice treated with and without low levan β-[2,6]-glycosidic linkages treatment.
# thoracic aorta = experiment: Vascular reactivity (wire myograph) of thoracic aorta from HFD obese mice; type: in vivo
# Description: FIG. 3A a graph showing the original traces for the harvesting of the thoracic aorta from mice C, HFD and EXP, and exposing the aortas to acetylcholine (Ach) in vitro using the wire myograph (cumulative doses of Ach after precontraction to phenylephrine).
# FIG. 3B is a graph of the aorta relaxation percentage in function of the logarithm of the concentration of acetylcholine (endothelium dependent relaxation to Ach) for control mice (1), EXP mice (2) and HFD mice (3).
# FIG. 3C is a graph of the aorta relaxation percentage in function of the logarithm of the concentration of sodium nitroprusside (SNP) (endothelium independent relaxation to SNP) for control mice (1), EXP mice (2) and HFD mice (3).
# as §1
# [12] = test system: inflammation, oxidative stress and endoplasmic reticulum stress markers in thoracic aorta; experiment: Western blot and mRNA markers in thoracic aorta of angiotensin II hypertensive mice; type: in vivo
# Description: FIG. 8H is a western blot of IP3R1,p-Protein kinase-like endoplasmic reticulum kinase (PERK), t-PERK, P-eNOS, T-eNOS, BIP, NOX1, TNFα, P65, cytochrome c and GAPDH, in thoracic aorta for control mice administered vehicle (CTL), EXP mice administered angiotensin II and levan (A+L), and mice administered angiotensin II without levan (ANG).
# [13] = mice with obesity, levan 250 mg/Kg gavage 4 weeks
# [14] = obese mice, endothelium dependent relaxation after precontraction to phenylephrine
# [15] = HFD mice, levan 250 mg/Kg gavage 4 weeks, vs untreated HFD mice
# [16] = listed as low MW levan β-[2,6]-glycosidic linkages
# [17] = listed as low molecular levan having β-[2,6]-glycosidic linkages
substance,measurement,setting,value
levan [low MW levan],"liver function (ALT, ALP)",[1],improved
same,toxicity of the dose used,[1],not toxic
same,endothelial function of resistance arteries (mesenteric artery),[2]; [13],preserve
same,vascular function in mesenteric arteries,[2]; [13],improved
same,"vascular response to acetylcholine (Ach), MRA",[2]; [14],improved
same,lipid profile,"[3]; HFD mice with obesity, levan 250 mg/Kg gavage 4 weeks",improved
same,fat mass %,"[3]; HFD mice, levan 250 mg/Kg gavage 4 weeks, EchoMRI, vs untreated HFD mice",significantly decreased
same,lean mass %,"[3]; HFD mice, levan 250 mg/Kg gavage 4 weeks, EchoMRI, vs untreated HFD mice, listed as low MW levan β-[2,6]-glycosidic linkages",increased
same,lean mass %,"[3]; HFD mice, levan 250 mg/Kg gavage 4 weeks, EchoMRI, vs untreated HFD mice, listed as low molecular weight levan having β-[2,6]-glycosidic linkages",significantly increased
same,HDL,[3]; [15],significantly decreased
same,LDL,[3]; [15],significantly decreased
same,blood glucose,[3]; [15],significantly decreased
same,total cholesterol,[3]; [15],significantly decreased
same,triglyceride,[3]; [15],significantly decreased
same,body weight,"[3]; vs untreated HFD mice, listed as Low MW levan β-[2,6]-glycosidic linkages",reduced
same,body weight,"[3]; vs untreated HFD mice, listed as low molecular weight levan having β-[2,6]-glycosidic linkages",decreased
same,ER stress,[4]; [16],decreased
same,inflammation,[4]; [16],decreased
same,oxidative stress,[4]; [16],decreased
same,ER stress,[4]; [17],reduced
same,inflammation,[4]; [17],reduced
same,oxidative stress,[4]; [17],reduced
same,ER stress,[5],reduced
same,inflammation,[5],reduced
same,oxidative stress,[5],reduced
same,"damage to the liver function (ALT, ALP)",[6],did not cause damage
same,toxicity of dose and treatment period,[6],not toxic
same,endoplasmic reticulum stress,[7]; [16],decreased
same,inflammation,[7]; [16],decreased
same,oxidative stress,[7]; [16],decreased
same,endoplasmic reticulum stress,[7]; listed as low levan,significantly reduced
same,inflammation,[7]; listed as low levan,significantly reduced
same,oxidative stress,[7]; listed as low levan,significantly reduced
same,endoplasmic reticulum stress,[8],significantly reduced
same,inflammation,[8],significantly reduced
same,oxidative stress,[8],significantly reduced
same,endoplasmic reticulum stress,[8]; [16],decreased
same,inflammation,[8]; [16],decreased
same,oxidative stress,[8]; [16],decreased
same,ER stress,[9]; [16],decreased
same,inflammation,[9]; [16],decreased
same,oxidative stress,[9]; [16],decreased
same,ER stress,[9]; [17],reduced
same,inflammation,[9]; [17],reduced
same,oxidative stress,[9]; [17],reduced
same,blood pressure,[10],reduced
same,vascular relaxation,"aorta; hypertensive mice, aorta",improving
same,exacerbated vascular contraction,"aorta; hypertensive mice, aorta contraction to PE, TXA, Ang II",reducing
same,vascular function in the aorta,aorta; mice with hypertension (angiotensin II),improved
same,ER stress,[11],reduced
same,inflammation,[11],reduced
same,oxidative stress,[11],reduced
same,endothelial function of conductance artery (thoracic aortic),thoracic aorta; [13],preserve
same,vascular function in aorta,thoracic aorta; [13],improved
same,"vascular response to acetylcholine (Ach), aorta",thoracic aorta; [14],improved
same,endoplasmic reticulum stress,[12],significantly reduced
same,inflammation,[12],significantly reduced
same,oxidative stress,[12],significantly reduced
